Structures can show the parent of a compound that is named as a salt.
Row | SMILES | melting point [°C]
1 | O=C(NCCC1CCN(Cc2ccccc2)CC1)Nc1nc2ccc(OS(=O)(=O)c3c(Cl)cccc3Cl)cc2s1 (as salt: benzenesulfonate) [Example 33, 2-({[2-(1-Benzylpiperidin-4-yl)ethyl]carbamoyl}amino)-1,3-benzothiazol-6-yl 2,6-dichlorobenzenesulfonate] | 105
2 | O=C(NCCN1CCN(Cc2ccccc2)CC1)Nc1nc2ccc(OS(=O)(=O)c3c(Cl)cccc3Cl)cc2s1 (as salt: benzenesulfonate) [Example 34, 2-({[2-(4-Benzylpiperazin-1-yl)ethyl]carbamoyl}amino)-1,3-benzothiazol-6-yl 2,6-dichlorobenzenesulfonate] | 102
3 | O=C(NCCN1CCNCC1)Nc1nc2ccc(OS(=O)(=O)c3c(Cl)cccc3Cl)cc2s1 (as salt: benzenesulfonate) [Example 36, 2-{[(2-piperazin-1-ylethyl)carbamoyl]amino}-1,3-benzothiazol-6-yl 2,6-dichlorobenzenesulfonate] | 158
4 | O=C(NCCN1CCOCC1)Nc1nc2ccc(OS(=O)(=O)c3ccccc3Cl)cc2s1 (as salt: benzenesulfonate) [Example 40, 2-{[(2-Morpholin-4-ylethyl)carbamoyl]amino}-1,3-benzothiazol-6-yl 2-chlorobenzenesulfonate] | 100
5 | O=C(CCc1cccnc1)Nc1nc2ccc(OS(=O)(=O)c3c(Cl)cccc3Cl)cc2s1 (as salt: benzenesulfonate) [Example 43, 2-[(3-Pyridin-3-ylpropanoyl)amino]-1,3-benzothiazol-6-yl 2,6-dichlorobenzenesulfonate] | 240
6 | O=C(Cc1cccnc1)Nc1nc2ccc(OS(=O)(=O)c3c(Cl)cccc3Cl)cc2s1 (as salt: benzenesulfonate) [Example 45, 2-[(Pyridin-3-ylacetyl)amino]-1,3-benzothiazol-6-yl 2,6-dichlorobenzenesulfonate] | 218
7 | CN(CCCNC(=O)Nc1nc2ccc(OS(=O)(=O)c3c(Cl)cccc3Cl)cc2s1)c1ccccc1 (as salt: benzenesulfonate) [Example 54, 2-[({3-[methyl(phenyl)amino]propyl}carbamoyl)amino]-1,3-benzothiazol-6-yl 2,6-dichlorobenzenesulfonate] | 68
8 | O=C(NCCN1CCC(Cc2ccccc2)CC1)Nc1nc2ccc(OS(=O)(=O)c3c(Cl)cccc3Cl)cc2s1 (as salt: benzenesulfonate) [Example 55, 2-({[2-(4-benzylpiperidin-1-yl)ethyl]carbamoyl}amino)-1,3-benzothiazol-6-yl 2,6-dichlorobenzenesulfonate] | 95
9 | CN1CCN(CCNC(=O)Nc2nc3ccc(OS(=O)(=O)c4c(Cl)cccc4Cl)cc3s2)CC1 (as salt: benzenesulfonate) [Example 60, 2-({[2-(4-methylpiperazin-1-yl)ethyl]carbamoyl}amino)-1,3-benzothiazol-6-yl 2,6-dichlorobenzenesulfonate] | 100
10 | O=C(NCCN1CCCCC1)Nc1nc2ccc(OS(=O)(=O)c3c(Cl)cccc3Cl)cc2s1 (as salt: benzenesulfonate) [Example 64, 2-{[(2-piperidin-1-ylethyl)carbamoyl]amino}-1,3-benzothiazol-6-yl 2,6-dichlorobenzenesulfonate] | 172
11 | CN(C)c1ccc(CNC(=O)Nc2nc3ccc(OS(=O)(=O)c4c(Cl)cccc4Cl)cc3s2)cc1 (as salt: benzenesulfonate) [Example 66, 2-({[4-(dimethylamino)benzyl]carbamoyl}amino)-1,3-benzothiazol-6-yl 2,6-dichlorobenzenesulfonate] | 154.5
12 | O=C(NCCCN1CCN(Cc2c(F)cccc2Cl)CC1)Nc1nc2ccc(OS(=O)(=O)c3c(Cl)cccc3Cl)cc2s1 (as salt: benzenesulfonate) [Example 67, 2-[({3-[4-(2-chloro-6-fluorobenzyl)piperazin-1-yl]propyl}carbamoyl)amino]-1,3-benzothiazol-6-yl 2,6-dichlorobenzenesulfonate] | 93
13 | O=C(NCCCN1CCN(Cc2ccccc2)CC1)Nc1nc2ccc(OS(=O)(=O)c3c(Cl)cccc3Cl)cc2s1 (as salt: benzenesulfonate) [Example 68, 2-({[3-(4-benzylpiperazin-1-yl)propyl]carbamoyl}amino)-1,3-benzothiazol-6-yl 2,6-dichlorobenzenesulfonate] | 218
14 | CN1CCN(CCCNC(=O)Nc2nc3ccc(OS(=O)(=O)c4c(Cl)cccc4Cl)cc3s2)CC1 (as salt: benzenesulfonate) [Example 69, 2-({[3-(4-methylpiperazin-1-yl)propyl]carbamoyl}amino)-1,3-benzothiazol-6-yl 2,6-dichlorobenzenesulfonate] | 96.5
15 | O=C(NCc1ccc(N2CCOCC2)cc1)Nc1nc2ccc(OS(=O)(=O)c3c(Cl)cccc3Cl)cc2s1 (as salt: benzenesulfonate) [Example 70, 2-{[(4-morpholin-4-ylbenzyl)carbamoyl]amino}-1,3-benzothiazol-6-yl 2,6-dichlorobenzenesulfonate] | 177

Next, values leading:

Row | melting point [°C] | SMILES
16 | 145 | O=C(Nc1nc2ccc(OS(=O)(=O)c3c(F)cccc3F)cc2s1)C1CC1 (as salt: benzenesulfonate) [Example 41, 2-[(Cyclopropylcarbonyl)amino]-1,3-benzothiazol-6-yl 2,6-difluorobenzenesulfonate]
17 | 179 | O=C(CCN1CCOCC1)Nc1nc2ccc(OS(=O)(=O)c3c(Cl)cccc3Cl)cc2s1 (as salt: benzenesulfonate) [Example 44, 2-[(3-Morpholin-4-ylpropanoyl)amino]-1,3-benzothiazol-6-yl 2,6-dichlorobenzenesulfonate]
18 | 134 | O=C(CCC1CCNCC1)Nc1nc2ccc(OS(=O)(=O)c3c(Cl)cccc3Cl)cc2s1 (as salt: benzenesulfonate) [Example 47, 2-[(3-Piperidin-4-ylpropanoyl)amino]-1,3-benzothiazol-6-yl 2,6-dichlorobenzenesulfonate]
19 | 114 | O=C(CCCC1CCNCC1)Nc1nc2ccc(OS(=O)(=O)c3c(Cl)cccc3Cl)cc2s1 (as salt: benzenesulfonate) [Example 48, 2-[(4-Piperidin-4-ylbutanoyl)amino]-1,3-benzothiazol-6-yl 2,6-dichlorobenzenesulfonate]
20 | 94 | O=C(NCCCN1CCOCC1)Nc1nc2ccc(OS(=O)(=O)c3c(Cl)cccc3Cl)cc2s1 (as salt: benzenesulfonate) [Example 53, 2-{[(3-morpholin-4-ylpropyl)carbamoyl]amino}-1,3-benzothiazol-6-yl 2,6-dichlorobenzenesulfonate]
21 | 99 | O=C(NCCN1CCCC1)Nc1nc2ccc(OS(=O)(=O)c3c(Cl)cccc3Cl)cc2s1 (as salt: benzenesulfonate) [Example 56, 2-{[(2-pyrrolidin-1-ylethyl)carbamoyl]amino}-1,3-benzothiazol-6-yl 2,6-dichlorobenzenesulfonate]
22 | 204 | O=C(Nc1nc2ccc(OS(=O)(=O)c3c(Cl)cccc3Cl)cc2s1)N1CCC[C@@H]1CN1CCCC1 (as salt: benzenesulfonate) [Example 57, 2-({[(2R)-2-(pyrrolidin-1-ylmethyl)pyrrolidin-1-yl]carbonyl}amino)-1,3-benzothiazol-6-yl 2,6-dichlorobenzenesulfonate]
23 | 210 | O=C(Nc1nc2ccc(OS(=O)(=O)c3c(Cl)cccc3Cl)cc2s1)N1CCC[C@H]1CN1CCCC1 (as salt: benzenesulfonate) [Example 58, 2-({[(2S)-2-(pyrrolidin-1-ylmethyl)pyrrolidin-1-yl]carbonyl}amino)-1,3-benzothiazol-6-yl 2,6-dichlorobenzenesulfonate]
24 | 96 | O=C(NCCCN1CCCC1)Nc1nc2ccc(OS(=O)(=O)c3c(Cl)cccc3Cl)cc2s1 (as salt: benzenesulfonate) [Example 59, 2-{[(3-pyrrolidin-1-ylpropyl)carbamoyl]amino}-1,3-benzothiazol-6-yl 2,6-dichlorobenzenesulfonate]
25 | 178 | CN1CCCC1CCNC(=O)Nc1nc2ccc(OS(=O)(=O)c3c(Cl)cccc3Cl)cc2s1 (stereo not shown) (as salt: benzenesulfonate) [Example 61, 2-({[2-(1-methylpyrrolidin-2-yl)ethyl]carbamoyl}amino)-1,3-benzothiazol-6-yl 2,6-dichlorobenzenesulfonate]
26 | 100 | CN(C)CCCNC(=O)Nc1nc2ccc(OS(=O)(=O)c3c(Cl)cccc3Cl)cc2s1 (as salt: benzenesulfonate) [Example 62, 2-({[3-(dimethylamino)propyl]carbamoyl}amino)-1,3-benzothiazol-6-yl 2,6-dichlorobenzenesulfonate]
27 | 122 | CC1CCCC(C)N1CCNC(=O)Nc1nc2ccc(OS(=O)(=O)c3c(Cl)cccc3Cl)cc2s1 (stereo not shown) (as salt: benzenesulfonate) [Example 63, 2-({[2-(2,6-dimethylpiperidin-1-yl)ethyl]carbamoyl}amino)-1,3-benzothiazol-6-yl 2,6-dichlorobenzenesulfonate]
28 | 195 | O=C(NCCCN1CCCC1=O)Nc1nc2ccc(OS(=O)(=O)c3c(Cl)cccc3Cl)cc2s1 (as salt: benzenesulfonate) [Example 65, 2-({[3-(2-oxopyrrolidin-1-yl)propyl]carbamoyl}amino)-1,3-benzothiazol-6-yl 2,6-dichlorobenzenesulfonate]
29 | 163 | O=C(Nc1nc2ccc(OS(=O)(=O)c3c(Cl)cccc3Cl)cc2s1)NC1CCCCCC1 (as salt: benzenesulfonate) [Example 72, 2-[(cycloheptylcarbamoyl)amino]-1,3-benzothiazol-6-yl 2,6-dichlorobenzenesulfonate]
30 | 249 | O=C(Nc1nc2ccc(OS(=O)(=O)c3c(Cl)cccc3Cl)cc2s1)NC1CCCC1 (as salt: benzenesulfonate) [Example 73, 2-[(cyclopentylcarbamoyl)amino]-1,3-benzothiazol-6-yl 2,6-dichlorobenzenesulfonate]
31 | 169 | CC(C)NC(=O)Nc1nc2ccc(OS(=O)(=O)c3c(Cl)cccc3Cl)cc2s1 (as salt: benzenesulfonate) [Example 74, 2-[(isopropylcarbamoyl)amino]-1,3-benzothiazol-6-yl 2,6-dichlorobenzenesulfonate]

Source: US8110571B2, “Benzimidazole and benzothiazole derivatives, method for preparing same, use thereof as drugs, pharmaceutical compositions and novel use especially as c-MET inhibitors” (Aventis Pharma S.A., priority 2005, dated 2012)
